Data on one compound can be found in patent US20170021042A1, “Flow-Through Pathogen Reduction” (Terumo BCT Biotechnologies, LLC, priority 2015, published 2017).

Marks after values point to notes of the source that are not given here.

In data set [1] the test system is PhiX174. Nature of the data set: PhiX174 reduction in whole blood with riboflavin, UV-illuminated flow-through flow cells. From the text: This study is designed to obtain insight into the correlation between flow rate, channel thickness and pathogen reduction of whole blood. The flow cells in this study have thin channels and different flow configurations. Thin channels are used because whole blood is less transmissive than plasma.
The flow cell mounts in a fixture (e.g. a flow cell holder) which maintains channel thickness by applying pressure from both the top and bottom. The fixture houses eight illumination lamps driven at 800 mA with four on top and four on bottom producing an irradiance of 4.5 mW/cm^2. Product can be flowed through the flow-cell, which is mounted adjacent to the light source, and then samples can be taken on the back end.
A peristaltic pump to control flow rate is used with the pump will located after the flow cell so that negative pressure is applied to the flow cell by the pump instead of positive pressure. The pump is calibrated prior to use to ensure flow rate accuracy.
Two flow cell configurations being tested may be referred to as “8p” and “4s×2p”. The 8p configuration has all the channels in parallel; therefore the fluid crosses one channel before exiting the flow cell. The 4s×2p configuration requires the fluid to cross four channels in series before exiting the flow cell. […]

Data set [2] relates to PhiX174. Nature of the data set: PhiX174 reduction in plasma with riboflavin, UV-illuminated flow-through flow cells. The note with it: for pathogen reduction (log reduction of PhiX174): plasma + riboflavin, irradiance 4.5 mW/cm2. From the text: The goal of this study is to obtain insight into the correlation between flow rate, channel thickness and pathogen reduction. The flow cells in this study have a relatively thicker channel and different flow configurations.
The flow cell mounts in a fixture (e.g., flow cell holder) which maintains channel thickness by applying pressure from both the top and bottom. The fixture houses eight illumination lamps driven at 800 mA with four on top and four on bottom producing an irradiance of 4.5 mW/cm2. Product can be flowed through the flow-cell, which is mounted adjacent to the light source, and then samples are taken on the back end.
The increased channel thickness results in decreased fluidic impedance requiring the use of a peristaltic pump to control flow rate instead of by gravity. The pump is calibrated prior to use to ensure flow rate accuracy.
1.5.5. Submit one sample tube for each sample for viral titer and save the other two samples for later analysis.
Below are the pathogen reduction results. In Table 6, cells with bold text indicate a sample that is within the limit of detection and cells with an asterisk indicate a sample that has six or less PhiX174 colonies at a one log dilution and is outside the limit of detection. Cells with underlined text indicate a sample is technically outside the limit of detection but has PhiX174 colonies allowing for the inferred calculation of pathogen reduction. Each cell also has dwell time in seconds and predicted dose. The lower predicted dose value takes into account the transmissivity of the plasma and flow cell. The higher predicted dose assumes that all light incident on the flow cell is absorbed by the plasma.

For `Cc1cc2nc3c(=O)[nH]c(=O)nc-3n(C[C@H](O)[C@H](O)[C@H](O)CO)c2cc1C` [riboflavin], the “pathogen reduction, in words” value in the data set on PhiX174 [1] is given as “within the acceptable pathogen reduction range”; in the data set on PhiX174 [2] (plasma and riboflavin, all flow cells A-D) it was “adequate pathogen reduction”. Besides, the “hemolysis, difference from hold control” value with whole blood is reported as ≤ 0.06 % hemolysis. In addition, the “pathogen reduction (log reduction of PhiX174)” value in the data set with PhiX174 [2] (flow cell A, gap 3/1000" (0.0762 mm), flow rate 20 ml/min, dwell 2.9 sec) is “(~3.4 logs)*”; in the data set on PhiX174 [2] (flow cell A, gap 3/1000" (0.0762 mm), flow rate 40 ml/min, dwell 1.5 sec) it was “(2.8 logs)*”; in the data set on PhiX174 [2] (flow cell B, gap 5/1000" (0.127 mm), flow rate 20 ml/min, dwell 4.9 sec), “(~3.6 logs)*”; in the data set with PhiX174 [2] (flow cell B, gap 5/1000" (0.127 mm), flow rate 40 ml/min, dwell 2.43 sec) it was “(2.6 logs)*”; in the data set with PhiX174 [2] (flow cell C, gap 12/1000" (0.305 mm), flow rate 40 ml/min, dwell 5.8 sec) it was “(~3.9 logs)*”; in the data set with PhiX174 [2] (flow cell C, gap 12/1000" (0.305 mm), flow rate 80 ml/min, dwell 2.9 sec) it was “(2.5 logs)*”. Moreover, the “pathogen reduction (log reduction of PhiX174)” value in the data set on PhiX174 [2] (flow cell D, gap 20/1000" (0.508 mm), flow rate 80 ml/min, dwell 4.7 sec) is given as “(2.9 logs)*”.
